In patent US12030878B2 (BRISTOL-MYERS SQUIBB COMPANY, priority 2017, dated 2024):

What was measured:
Assay type in all cases: cell-based
human TLR8 = target: T1, human TLR8 (Homo sapiens, UniProt Q9NR97); experiment: TLR8 inhibition reporter assay (HEK-Blue SEAP); conditions: HEK-Blue cells overexpressing human TLR8, stimulated with R848 15.9 μM, 22 hour incubation
T1 construct: host or cells: HEK-Blue cells
T1 sequence (Q9NR97 27-1041): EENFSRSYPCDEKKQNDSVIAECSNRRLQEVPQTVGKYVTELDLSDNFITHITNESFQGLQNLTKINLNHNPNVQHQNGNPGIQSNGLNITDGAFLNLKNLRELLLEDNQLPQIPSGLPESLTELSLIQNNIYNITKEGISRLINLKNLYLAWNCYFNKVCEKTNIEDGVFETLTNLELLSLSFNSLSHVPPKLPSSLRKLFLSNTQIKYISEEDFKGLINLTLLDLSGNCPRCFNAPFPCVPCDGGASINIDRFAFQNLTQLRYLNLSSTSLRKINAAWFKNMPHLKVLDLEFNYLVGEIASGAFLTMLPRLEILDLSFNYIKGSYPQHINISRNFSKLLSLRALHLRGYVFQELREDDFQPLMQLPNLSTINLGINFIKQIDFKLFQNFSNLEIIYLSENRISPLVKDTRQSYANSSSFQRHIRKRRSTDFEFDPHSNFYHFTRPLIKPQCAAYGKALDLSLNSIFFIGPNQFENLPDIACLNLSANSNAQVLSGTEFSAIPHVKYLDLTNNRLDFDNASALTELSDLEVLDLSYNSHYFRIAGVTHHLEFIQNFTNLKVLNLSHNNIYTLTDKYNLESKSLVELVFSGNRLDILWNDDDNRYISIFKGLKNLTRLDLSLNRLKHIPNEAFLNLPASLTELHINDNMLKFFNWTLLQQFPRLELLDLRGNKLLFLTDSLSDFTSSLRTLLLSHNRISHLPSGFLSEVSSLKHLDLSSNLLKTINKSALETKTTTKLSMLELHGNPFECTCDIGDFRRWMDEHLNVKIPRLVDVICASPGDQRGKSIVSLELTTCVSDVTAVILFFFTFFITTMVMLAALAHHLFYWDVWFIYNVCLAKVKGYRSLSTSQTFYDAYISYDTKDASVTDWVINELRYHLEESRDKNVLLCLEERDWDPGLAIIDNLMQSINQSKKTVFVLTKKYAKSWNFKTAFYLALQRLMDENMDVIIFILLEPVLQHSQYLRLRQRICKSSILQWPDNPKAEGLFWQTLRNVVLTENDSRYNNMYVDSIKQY
Method in brief: (§1)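 Stimulation followed a 30 min room-temperature compound exposure (final 0.05 nM-50 μM): TLR7 cells with 7.5 μM gardiquimod, TLR8 with 15.9 μM R848, TLR9 with 5 nM ODN2006. After 22 h at 37 °C, secreted alkaline phosphatase was detected colorimetrically and inhibition calculated against DMSO and known-inhibitor controls.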

human TLR9 = target: T2, human TLR9 (Homo sapiens, UniProt Q9NR96); experiment: TLR9 inhibition reporter assay (HEK-Blue SEAP); conditions: HEK-Blue cells overexpressing human TLR9, stimulated with ODN2006 5 nM, 22 hour incubation
T2 construct: host or cells: HEK-Blue cells
T2 sequence (Q9NR96 26-1032): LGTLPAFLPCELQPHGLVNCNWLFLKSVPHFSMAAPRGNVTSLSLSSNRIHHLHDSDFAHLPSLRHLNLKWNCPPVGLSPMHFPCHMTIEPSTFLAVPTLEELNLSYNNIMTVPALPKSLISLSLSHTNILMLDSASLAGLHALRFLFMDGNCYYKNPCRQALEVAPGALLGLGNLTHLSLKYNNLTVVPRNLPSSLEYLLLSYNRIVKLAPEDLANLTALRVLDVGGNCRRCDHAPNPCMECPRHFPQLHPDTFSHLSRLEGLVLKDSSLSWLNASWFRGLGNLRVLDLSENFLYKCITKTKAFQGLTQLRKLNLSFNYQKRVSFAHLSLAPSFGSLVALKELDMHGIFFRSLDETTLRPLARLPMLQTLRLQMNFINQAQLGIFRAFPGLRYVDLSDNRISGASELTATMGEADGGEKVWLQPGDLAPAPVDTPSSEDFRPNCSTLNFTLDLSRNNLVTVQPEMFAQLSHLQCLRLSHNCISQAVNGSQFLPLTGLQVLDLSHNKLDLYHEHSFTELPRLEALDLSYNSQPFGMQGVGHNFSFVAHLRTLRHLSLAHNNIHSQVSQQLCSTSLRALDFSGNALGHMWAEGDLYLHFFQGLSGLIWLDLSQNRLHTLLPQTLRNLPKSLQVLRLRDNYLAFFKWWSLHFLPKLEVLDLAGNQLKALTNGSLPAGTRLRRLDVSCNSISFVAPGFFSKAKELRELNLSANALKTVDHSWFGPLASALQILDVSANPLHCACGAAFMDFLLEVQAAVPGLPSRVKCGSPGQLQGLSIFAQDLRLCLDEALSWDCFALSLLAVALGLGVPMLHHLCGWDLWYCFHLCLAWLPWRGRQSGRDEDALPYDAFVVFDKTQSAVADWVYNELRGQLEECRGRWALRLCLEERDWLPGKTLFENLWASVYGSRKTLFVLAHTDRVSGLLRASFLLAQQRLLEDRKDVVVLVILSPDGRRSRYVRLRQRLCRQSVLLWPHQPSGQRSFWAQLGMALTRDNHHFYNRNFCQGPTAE
Method in brief: as §1

human TLR7 = target: T3, human TLR7 (Homo sapiens, UniProt Q9NYK1); experiment: TLR7 inhibition reporter assay (HEK-Blue SEAP); conditions: HEK-Blue cells overexpressing human TLR7, stimulated with gardiquimod 7.5 μM, 22 hour incubation
T3 construct: host or cells: HEK-Blue cells
T3 sequence (Q9NYK1 27-1049): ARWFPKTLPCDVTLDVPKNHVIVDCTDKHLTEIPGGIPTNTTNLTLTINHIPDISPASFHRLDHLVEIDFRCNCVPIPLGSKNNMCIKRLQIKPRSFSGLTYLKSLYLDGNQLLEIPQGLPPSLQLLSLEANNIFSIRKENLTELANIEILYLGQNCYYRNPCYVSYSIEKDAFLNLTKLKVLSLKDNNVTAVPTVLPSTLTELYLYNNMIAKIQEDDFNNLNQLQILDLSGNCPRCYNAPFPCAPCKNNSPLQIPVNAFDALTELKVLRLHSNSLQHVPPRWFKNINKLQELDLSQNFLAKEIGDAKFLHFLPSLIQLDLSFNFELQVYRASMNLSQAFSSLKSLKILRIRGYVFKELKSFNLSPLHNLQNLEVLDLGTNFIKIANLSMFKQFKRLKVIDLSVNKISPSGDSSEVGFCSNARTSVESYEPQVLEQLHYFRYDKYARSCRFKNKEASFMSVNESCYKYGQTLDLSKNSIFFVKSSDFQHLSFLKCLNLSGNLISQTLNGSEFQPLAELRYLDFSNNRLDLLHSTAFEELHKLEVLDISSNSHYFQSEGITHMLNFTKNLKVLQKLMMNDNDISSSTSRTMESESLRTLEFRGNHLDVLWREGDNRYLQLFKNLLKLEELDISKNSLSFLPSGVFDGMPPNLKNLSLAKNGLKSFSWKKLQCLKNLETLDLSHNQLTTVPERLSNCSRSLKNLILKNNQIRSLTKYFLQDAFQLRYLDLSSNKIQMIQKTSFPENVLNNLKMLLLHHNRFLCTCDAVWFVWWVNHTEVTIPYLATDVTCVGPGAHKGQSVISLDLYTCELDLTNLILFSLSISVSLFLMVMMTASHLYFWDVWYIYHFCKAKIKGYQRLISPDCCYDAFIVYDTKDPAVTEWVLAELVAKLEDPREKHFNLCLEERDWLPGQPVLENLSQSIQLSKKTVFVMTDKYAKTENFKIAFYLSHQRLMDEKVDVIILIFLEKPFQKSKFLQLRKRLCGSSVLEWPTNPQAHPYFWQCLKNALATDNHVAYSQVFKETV
Method in brief: as §1

SMILES	IC50 (human TLR8)	IC50 (human TLR9)	IC50 (human TLR7)
Cc1cc(-c2[nH]c3ccc(OC4CCN(C(=O)CN(C)C)CC4)cc3c2C(C)C)cn2ncnc12 [Example 101, 2-(dimethylamino)-1-(4-((3-isopropyl-2-(8-methyl-[1,2,4]triazolo[1,5-a]pyridin-6-yl)-1H-indol-5-yl)oxy)piperidin-1-yl)ethan-1-one]	35.9 nM	9750 nM	2.3 nM
Cc1cc(-c2[nH]c3ccc(OCC(=O)NC4CCC5CNCC54)cc3c2C(C)C)ccn1 (stereo not drawn) [Example 142, 2-((3-isopropyl-2-(2-methylpyridin-4-yl)-1H-indol-5-yl)oxy)-N-(octahydrocyclopenta[c]pyrrol-4-yl)acetamide]	78.4 nM	383 nM	349 nM
Cc1c(-c2[nH]c3ccc(OC4CCN(C(C)C)CC4)cc3c2C(C)C)cn2cnnc2c1C [Example 57, 6-(3-isopropyl-5-((1-isopropylpiperidin-4-yl)oxy)-1H-indol-2-yl)-7,8-dimethyl-[1,2,4]triazolo[4,3-a]pyridine]	14.5 nM	18600 nM	33.6 nM
Cc1c(-c2[nH]c3ccc(OCC4CCN(CC(=O)N(C)C)CC4)cc3c2C(C)C)cn(C)c(=O)c1C [Example 88, 2-(4-(((3-isopropyl-2-(1,4,5-trimethyl-6-oxo-1,6-dihydropyridin-3-yl)-1H-indol-5-yl)oxy)methyl)piperidin-1-yl)-N,N-dimethylacetamide]	22.4 nM	15300 nM	50.9 nM
COc1ccc(-c2[nH]c3ccc(OCC(=O)NC[C@@H](F)C(C)(C)O)cc3c2C(C)C)cc1OC [Example 154, (R)-2-((2-(3,4-dimethoxyphenyl)-3-isopropyl-1H-indol-5-yl)oxy)-N-(2-fluoro-3-hydroxy-3-methylbutyl) acetamide]	1890 nM	> 50000 nM	899 nM

Now those with a lower IC50 (human TLR8), led by results:

IC50 (human TLR8)	IC50 (human TLR9)	IC50 (human TLR7)	SMILES
8.5 nM	398 nM	7.7 nM	Cc1cc(-c2[nH]c3ccc(OCC4CCN(CC(=O)N(C)C)CC4)cc3c2C(C)C)cc(C)n1 [Example 80, 2-(4-(((2-(2,6-dimethylpyridin-4-yl)-3-isopropyl-1H-indol-5-yl)oxy)methyl)piperidin-1-yl)-N,N-dimethylacetamide]
1.7 nM	1750 nM	0.5 nM	Cc1cc(-c2[nH]c3ccc(OCC4CCN(CC(C)(C)O)CC4)cc3c2C(C)C)cn2ncnc12 [Example 27, 1-(4-(((3-isopropyl-2-(8-methyl-[1,2,4]triazolo[1,5-a]pyridin-6-yl)-1H-indol-5-yl)oxy)methyl)piperidin-1-yl)-2-methylpropan-2-ol]
2.5 nM	1440 nM	39.7 nM	Cc1cc(-c2[nH]c3ccc(OC4CCN(C)CC4)cc3c2C(C)C)ccn1 [Example 179, 3-isopropyl-5-((1-methylpiperidin-4-yl)oxy)-2-(2-methylpyridin-4-yl)-1H-indole]
5.9 nM	915 nM	24.2 nM	Cc1cc(-c2[nH]c3ccc(OCC4CCCN(C)C4)cc3c2C(C)C)ccn1 (stereo not drawn) [Example 181, 3-isopropyl-5-((1-methylpiperidin-3-yl)methoxy)-2-(2-methylpyridin-4-yl)-1H-indole]
6.8 nM	2990 nM	0.5 nM	Cc1cc(-c2[nH]c3ccc(OCC4CN(C)C4)cc3c2C(C)C)cn2ncnc12 [Example 59, 6-(3-isopropyl-5-((1-methylazetidin-3-yl)methoxy)-1H-indol-2-yl)-8-methyl-[1,2,4]triazolo[1,5-a]pyridine]
6.8 nM	46800 nM	14.2 nM	CNC(=O)CN1CCC(COc2ccc3[nH]c(-c4cc(C)c(=O)n(C)c4)c(C(C)C)c3c2)CC1 [Example 111, 2-(4-(((2-(1,5-dimethyl-6-oxo-1,6-dihydropyridin-3-yl)-3-isopropyl-1H-indol-5-yl)oxy)methyl)piperidin-1-yl)-N-methylacetamide]
